Test results reported in BindingDB's records for doi:10.1016/j.bmcl.2018.09.032 (Shionogi, 2018).

Test: Transrepression of RORgammat in anti-CD3/CD28 stimulated human PBMC derived CD4-positive T cells assessed as suppression of T cell differentiation to Th17 cells by measuring reduction in IL-17A level after 7 days by flow cytometry analysis

| SMILES | IC50 [nM] |
| --- | --- |
| CCS(=O)(=O)c1ccc(CC(=O)Nc2ccc(C(C)(C)C(=O)Nc3ccc(F)cc3F)cc2)cc1 | 36 |
| CCS(=O)(=O)c1ccc(CC(=O)Nc2ccc(C(C)(C)C(=O)Nc3ccc(F)cc3F)c(F)c2)cc1 | 13 |
